The target in one test is T1, PKC βI (Bos taurus, UniProt P05126).
T1 construct: isozyme expressed in these adult cells (βI); endogenous in cells; host or cells: adult bovine pulmonary artery smooth muscle cells (PA SMC)
Put plainly: PKC isozyme expression by Western blot: βI. As to conditions: adult PA SMC. The format is cell-based, bovine. How it is done:
[…]. Hypoxic growth was induced by priming with the PKC activator, 10 nM PMA. Proliferative response was measured by ^3 H-thymidine incorporation and cell counts. Isozyme expression was measured by Western blot. […]. […] […].
For orientation: A western blot detects proteins with antibodies after separation by electrophoresis.

The target in test [1] is T2, PKC-α (Mus musculus, UniProt P20444).
T2 construct: PKC-α protein levels in whole lung homogenates; from tissue; host or cells: whole lung homogenates of treated mice
The experiment in a line: PKC-α protein levels in whole lung homogenates of treated mice. The format is in vivo. As to conditions: chronic treatment of mice.

Test [2] deals with T3, PKC-α (Bos taurus, UniProt P04409).
T3 construct: proteolytic degradation of PKC-α in smooth muscle cells; endogenous in cells; host or cells: adult bovine pulmonary artery smooth muscle cells (PA SMC)
The experiment in a line: PKC isozyme expression by Western blot: PKC-α degradation. Format: cell-based, bovine. How it is done: (§1) Hypoxic growth was induced by priming with the PKC activator, 10 nM PMA. Proliferative response was measured by ^3 H-thymidine incorporation and cell counts. Isozyme expression was measured by Western blot.

For the next test, the system named is PKC-α and β. The experiment in a line: PKC activity in PA SMC preparation. Format: cell-based, bovine.
Test [3] deals with adult bovine pulmonary artery smooth muscle cells. The format is cell-based. The protocol: as §1

T1 sequence (P05126 whole entry): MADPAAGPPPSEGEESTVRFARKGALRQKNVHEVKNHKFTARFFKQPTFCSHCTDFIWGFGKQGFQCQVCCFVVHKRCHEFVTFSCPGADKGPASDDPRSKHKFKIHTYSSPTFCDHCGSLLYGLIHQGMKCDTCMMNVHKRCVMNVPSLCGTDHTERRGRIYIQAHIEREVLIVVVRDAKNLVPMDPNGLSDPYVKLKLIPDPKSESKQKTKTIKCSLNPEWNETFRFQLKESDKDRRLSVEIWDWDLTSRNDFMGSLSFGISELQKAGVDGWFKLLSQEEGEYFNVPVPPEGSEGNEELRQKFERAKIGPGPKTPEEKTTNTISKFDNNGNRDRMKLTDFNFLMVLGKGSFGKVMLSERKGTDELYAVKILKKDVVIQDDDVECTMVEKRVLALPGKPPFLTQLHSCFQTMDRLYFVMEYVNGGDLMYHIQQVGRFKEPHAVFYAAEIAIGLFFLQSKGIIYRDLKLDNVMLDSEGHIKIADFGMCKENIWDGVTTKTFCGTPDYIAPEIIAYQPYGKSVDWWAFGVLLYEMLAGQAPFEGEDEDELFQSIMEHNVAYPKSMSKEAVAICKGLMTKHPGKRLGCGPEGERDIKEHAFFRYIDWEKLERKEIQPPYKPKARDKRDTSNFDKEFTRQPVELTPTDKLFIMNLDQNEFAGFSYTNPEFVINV

With `CCCC=CC=CC(=O)OC1C(=CC(=O)OC)CC2CC(C(C)O)OC(=O)CC(O)CC3CC(OC(C)=O)C(C)(C)C(O)(CC4CC(=CC(=O)OC)CC(C=CC(C)(C)C1(O)O2)O4)O3` (stereo not drawn) [bryostatin-1], the “degradation of Ca2+-dependent isozyme βI” value on PKC βI is listed as “No degradation”. For the same compound, at PKC-α [1], the “PKC-α protein levels in whole lung homogenates (FIG. 8)” value is given as “decreases PKC-α protein levels”. Also, at PKC-α [2], the “threshold concentration to induce PKC-α degradation” value was 10 nM. Further, at PKC-α [2] (100 nM), the “time at which PKC-α degradation is complete” value is not above 24 h and the “time at which PKC-α degradation is first detectable” value is not above 1 h. Besides, on PKC-α [2] (bovine PA SMC), the “dose dependence of PKC-α degradation and hypoxic growth (FIG. 6)” value was “dose-dependent effect”; the “time dependence of PKC-α degradation (FIG. 5)” value is recorded as “time dependent”.
For the compound `Cn1c2ccccc2c2c3c(c4c5ccccc5n(CCC#N)c4c21)CNC3=O` [Go6976], the “activity of PKC-α and β (FIG. 4)” value with PKC-α and β was “inhibits activity of PKC-α and β”. The “hypoxia-induced PA SMC proliferation (FIG. 4)” value in test [3] is “inhibits hypoxia-induced PA SMC proliferation”.
